Measurements taken from patent publication US7462600B2, “Macrolides” (Pfizer Inc, priority 2004, dated 2008).
≈ marks a conversion by molar mass, not a printed value.

Tests used:
Format in all cases: cell-based
[1] = system: Haemophilus influenzae 1218; assay: MIC, microtiter broth dilution (NCCLS M100-S14), H. influenzae 1218 (susceptible); conditions: H. influenzae 1218 (susceptible)
Outline: (§1)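 Microtiter broth dilution; interpretation per NCCLS M100-S14; endpoint = MIC. Stock: 40 mg/ml in DMSO.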

[2] = system: Streptococcus pneumoniae 1016; assay: MIC, microtiter broth dilution (NCCLS M100-S14), S. pneumoniae 1016 (susceptible); conditions: S. pneumoniae 1016 (susceptible)
Outline: as §1

[3] = system: Streptococcus pneumoniae 1095; conditions: S. pneumoniae 1095 (ermB); microtiter broth dilution
Outline: as §1

[4] = system: Streptococcus pneumoniae 1175; conditions: S. pneumoniae 1175 (mefA); microtiter broth dilution
Outline: as §1

[5] = system: Streptococcus pyogenes 1079; assay: MIC, microtiter broth dilution (NCCLS M100-S14), S. pyogenes 1079 (ermB); conditions: S. pyogenes 1079 (ermB)
Outline: as §1

Row | SMILES | MIC H. influenzae 1218 [1] | MIC S. pneumo. 1016 [2] | MIC S. pneumo. 1095 [3] | MIC S. pneumo. 1175 [4] | MIC S. pyogenes 1079 [5]
1 | CCC1OC(=O)C(C)C(=O)C(C)C(OC2OC(C)CC(N(C)C)C2O)C(C)(OC)CC(C)C(=O)C(C)C2N(CC3CCCN3C(=O)c3cccc4cccnc34)C(=O)OC12C.O=CO (centres unmarked) [10.11] | 16 µg/mL | <0.06 µg/mL | 0.5 µg/mL | 4 µg/mL | >64.00 µg/mL
2 | CCC1OC(=O)C(C)C(=O)C(C)C(OC2OC(C)CC(N(C)C)C2O)C(C)(OC)CC(C)C(=O)C(C)C2N(CC3CCCN3C(=O)c3ccc4nccnc4c3)C(=O)OC12C.O=CO (centres unmarked) [10.12] | 2 µg/mL | <0.06 µg/mL | <0.06 µg/mL | 0.12 µg/mL | 32 µg/mL
3 | CCC1OC(=O)C(C)C(=O)C(C)C(OC2OC(C)CC(N(C)C)C2O)C(C)(OC)CC(C)C(=O)C(C)C2N(CC3CCCN3C(=O)c3ccc(-n4cccn4)nc3)C(=O)OC12C.O=CO (centres unmarked) [10.13] | 16 µg/mL | <0.06 µg/mL | 0.5 µg/mL | 0.5 µg/mL | >64.00 µg/mL
4 | CCC1OC(=O)C(C)C(=O)C(C)C(OC2OC(C)CC(N(C)C)C2O)C(C)(OC)CC(C)C(=O)C(C)C2N(CC3CCCN3C(=O)c3ccc4cccnc4c3)C(=O)OC12C.O=CO (centres unmarked) [10.15] | 2 µg/mL | <0.06 µg/mL | <0.06 µg/mL | 0.25 µg/mL | >64.00 µg/mL
5 | CCC1OC(=O)C(C)C(=O)C(C)C(OC2OC(C)CC(N(C)C)C2O)C(C)(OC)CC(C)C(=O)C(C)C2N(CC3CCCN3C(=O)c3ccc4cccnc4n3)C(=O)OC12C.O=CO (centres unmarked) [10.16] | 0.25 µg/mL | <0.06 µg/mL | <0.06 µg/mL | 0.25 µg/mL | >64.00 µg/mL
6 | CCC1OC(=O)C(C)C(=O)C(C)C(OC2OC(C)CC(N(C)C)C2O)C(C)(OC)CC(C)C(=O)C(C)C2N(CC3CCCN3C(=O)c3nccc4ccccc34)C(=O)OC12C.O=CO (centres unmarked) [10.17] | 0.5 µg/mL | <0.06 µg/mL | <0.06 µg/mL | 0.12 µg/mL | >64.00 µg/mL
7 | CCC1OC(=O)C(C)C(=O)C(C)C(OC2OC(C)CC(N(C)C)C2O)C(C)(OC)CC(C)C(=O)C(C)C2N(CC3CCCN3C(=O)c3cncc4ccccc34)C(=O)OC12C.O=CO (centres unmarked) [10.20] | 2 µg/mL | <0.06 µg/mL | <0.06 µg/mL | 0.12 µg/mL | 64 µg/mL
8 | CCC1OC(=O)C(C)C(=O)C(C)C(OC2OC(C)CC(N(C)C)C2O)C(C)(OC)CC(C)C(=O)C(C)C2N(CC3CCCN3C(=O)c3cnc4ccccc4n3)C(=O)OC12C.O=CO (centres unmarked) [10.21] | 2 µg/mL | <0.06 µg/mL | <0.06 µg/mL | 0.12 µg/mL | >64.00 µg/mL
9 | CC[C@H]1OC(=O)[C@H](C)C(=O)[C@H](C)[C@@H](O[C@@H]2O[C@H](C)C[C@H](N(C)C)[C@H]2O)[C@](C)(OC)C[C@@H](C)C(=O)[C@H](C)[C@H]2N(C[C@H]3CCCN3C(=O)c3cccc4ncsc34)C(=O)O[C@]12C.O=CO [10.22] | 2.5 µg/mL | <0.06 µg/mL | 0.12 µg/mL | 2 µg/mL | 64 µg/mL
10 | CCC1OC(=O)C(C)C(=O)C(C)C(OC2OC(C)CC(N(C)C)C2O)C(C)(OC)CC(C)C(=O)C(C)C2N(CC3CCCN3C(=O)c3cccc4ncoc34)C(=O)OC12C (centres unmarked) [10.23] | 8 µg/mL (≈ 9.51 µM) | <0.06 µg/mL | <0.06 µg/mL | 1 µg/mL (≈ 1.19 µM) | >64.00 µg/mL
11 | CCC1OC(=O)C(C)C(=O)C(C)C(OC2OC(C)CC(N(C)C)C2O)C(C)(OC)CC(C)C(=O)C(C)C2N(CC3CCCN3C(=O)c3nc4ccncc4[nH]3)C(=O)OC12C (centres unmarked) [10.24] | 2 µg/mL (≈ 2.38 µM) | <0.06 µg/mL | <0.06 µg/mL | 1 µg/mL (≈ 1.19 µM) | >64.00 µg/mL
12 | CCC1OC(=O)C(C)C(=O)C(C)C(OC2OC(C)CC(N(C)C)C2O)C(C)(OC)CC(C)C(=O)C(C)C2N(CC3CCCN3C(=O)c3nc4cccnc4[nH]3)C(=O)OC12C (centres unmarked) [10.25] | 4 µg/mL (≈ 4.76 µM) | <0.06 µg/mL | <0.06 µg/mL | 0.5 µg/mL (≈ 0.595 µM) | >64.00 µg/mL
13 | CCC1OC(=O)C(C)C(=O)C(C)C(OC2OC(C)CC(N(C)C)C2O)C(C)(OC)CC(C)C(=O)C(C)C2N(CC3CCCN3C(=O)c3nc4cncnc4[nH]3)C(=O)OC12C (centres unmarked) [10.26] | 2 µg/mL (≈ 2.38 µM) | <0.06 µg/mL | <0.06 µg/mL | 1 µg/mL (≈ 1.19 µM) | >64.00 µg/mL
14 | CCC1OC(=O)C(C)(F)C(=O)C(C)C(OC2OC(C)CC(N(C)C)C2O)C(C)(OC)CC(C)C(=O)C(C)C2N(CC3CCCN3C(=O)c3cc4ccccn4n3)C(=O)OC12C (centres unmarked) [10.28] | 1 µg/mL (≈ 1.17 µM) | <0.06 µg/mL | <0.06 µg/mL | 0.12 µg/mL (≈ 0.14 µM) | 16 µg/mL (≈ 18.6 µM)
15 | CCC1OC(=O)C(C)(F)C(=O)C(C)C(OC2OC(C)CC(N(C)C)C2O)C(C)(OC)CC(C)C(=O)C(C)C2N(CC3CCCN3C(=O)c3nccc4ccccc34)C(=O)OC12C (centres unmarked) [10.29] | 2 µg/mL (≈ 2.3 µM) | <0.06 µg/mL | <0.06 µg/mL | 0.12 µg/mL (≈ 0.138 µM) | 16 µg/mL (≈ 18.4 µM)
16 | CCC1OC(=O)C(C)(F)C(=O)C(C)C(OC2OC(C)CC(N(C)C)C2O)C(C)(OC)CC(C)C(=O)C(C)C2N(CC3CCCN3C(=O)c3ccc4cccnc4n3)C(=O)OC12C (centres unmarked) [10.30] | 2 µg/mL (≈ 2.3 µM) | <0.06 µg/mL | <0.06 µg/mL | 0.12 µg/mL (≈ 0.138 µM) | 32 µg/mL (≈ 36.8 µM)
17 | CCC1OC(=O)C(C)C(=O)C(C)C(OC2OC(C)CC(N(C)C)C2O)C(C)(OC)CC(C)C(=O)C(C)C2N(CC3CCCN3C(=O)c3ccc4[nH]ncc4c3)C(=O)OC12C (centres unmarked) [10.32] | 1 µg/mL (≈ 1.19 µM) | <0.06 µg/mL | <0.06 µg/mL | 0.5 µg/mL (≈ 0.595 µM) | >64.00 µg/mL
18 | CCC1OC(=O)C(C)C(=O)C(C)C(OC2OC(C)CC(N(C)C)C2O)C(C)(OC)CC(C)C(=O)C(C)C2N(CC3CCCN3C(=O)c3cccc4nccnc34)C(=O)OC12C (centres unmarked) [10.33] | 2 µg/mL (≈ 2.35 µM) | <0.06 µg/mL | <0.06 µg/mL | 0.25 µg/mL (≈ 0.293 µM) | >64.00 µg/mL
19 | CCC1OC(=O)C(C)C(=O)C(C)C(OC2OC(C)CC(N(C)C)C2O)C(C)(OC)CC(C)C(=O)C(C)C2N(CC3CCCN3C(=O)c3cc4ccncc4[nH]3)C(=O)OC12C (centres unmarked) [10.34] | 2 µg/mL (≈ 2.38 µM) | <0.06 µg/mL | 0.12 µg/mL (≈ 0.143 µM) | 0.12 µg/mL (≈ 0.143 µM) | >64.00 µg/mL
20 | CCC1OC(=O)C(C)C(=O)C(C)C(OC2OC(C)CC(N(C)C)C2O)C(C)(OC)CC(C)C(=O)C(C)C2N(CC3CCCN3C(=O)c3cccn(Cc4ccccc4)c3=O)C(=O)OC12C (centres unmarked) [10.36] | 16 µg/mL (≈ 17.6 µM) | <0.06 µg/mL | 4 µg/mL (≈ 4.41 µM) | 0.5 µg/mL (≈ 0.551 µM) | >64.00 µg/mL
21 | CCC1OC(=O)C(C)C(=O)C(C)C(OC2OC(C)CC(N(C)C)C2O)C(C)(OC)CC(C)C(=O)C(C)C2N(CC3CCCN3C(=O)c3cccc4ccncc34)C(=O)OC12C (centres unmarked) [10.37] | 0.5 µg/mL (≈ 0.588 µM) | <0.06 µg/mL | <0.06 µg/mL | <0.06 µg/mL | 16 µg/mL (≈ 18.8 µM)
22 | CCC1OC(=O)C(C)C(=O)C(C)C(OC2OC(C)CC(N(C)C)C2O)C(C)(OC)CC(C)C(=O)C(C)C2N(CC3CCCN3C(=O)c3cnc4ncccc4c3)C(=O)OC12C (centres unmarked) [10.38] | 1 µg/mL (≈ 1.17 µM) | <0.06 µg/mL | <0.06 µg/mL | 0.5 µg/mL (≈ 0.587 µM) | >64.00 µg/mL
23 | CCC1OC(=O)C(C)C(=O)C(C)C(OC2OC(C)CC(N(C)C)C2O)C(C)(OC)CC(C)C(=O)C(C)C2N(CC3CCCN3C(=O)c3cc4cccnc4nc3C)C(=O)OC12C (centres unmarked) [10.39] | 2 µg/mL (≈ 2.31 µM) | <0.06 µg/mL | <0.06 µg/mL | 0.5 µg/mL (≈ 0.577 µM) | >64.00 µg/mL
24 | CCC1OC(=O)C(C)C(=O)C(C)C(OC2OC(C)CC(N(C)C)C2O)C(C)(OC)CC(C)C(=O)C(C)C2N(CC3CCCN3C(=O)c3cc4cccnc4nc3C(F)(F)F)C(=O)OC12C (centres unmarked) [10.40] | 2 µg/mL (≈ 2.17 µM) | <0.06 µg/mL | <0.06 µg/mL | <0.06 µg/mL | >64.00 µg/mL
25 | CCC1OC(=O)C(C)C(=O)C(C)C(OC2OC(C)CC(N(C)C)C2O)C(C)(OC)CC(C)C(=O)C(C)C2N(CC3CCCN3C(=O)c3cc4cnccc4nc3C)C(=O)OC12C (centres unmarked) [10.41] | 2 µg/mL (≈ 2.31 µM) | <0.06 µg/mL | <0.06 µg/mL | <0.06 µg/mL | >64.00 µg/mL
